Data as given in patent US11771738B2 (Zoetis Services LLC, priority 2018, dated 2023).
Like-named read-outs stand apart in the source and are kept apart here.

Assays:
Assay type in all cases: cell-based
[1] = tested on: microfilariae of Dirofilaria immitis; assay: Dirofilaria immitis, Microfilaria (DiMf) In Vitro Assay; conditions: Dirofilaria immitis, 72 h, read-out: DiMf MED, Minimum Effective Dose, D. immitis microfilariae motility, in vitro
[2] = tested on: D. immitis L4 larvae; assay: Dirofilaria immitis, L4 Stage (DiL4) In Vitro Assay; conditions: for minimal effective concentration: Dirofilaria immitis, 72 h, read-out: DiL4 MED, Minimum Effective Dose, D. immitis L4 larvae motility, in vitro; for DiMf/DiL4: larval stage selectivity, ratio of DiMf MED to DiL4 MED
[3] = tested on: third stage larvae of Haemonchus contortus; assay: Haemonchus contortus, Larvae Stage 3 (HcL3) In Vitro Assay; conditions: Haemonchus contortus, 96 h
[4] = read-out: HcL3 MED, Haemonchus contortus third stage larvae in vitro, class mark appended to the Ex # in Table 3
[5] = read-out: HcL3 MED, Minimum Effective Dose, H. contortus third stage larvae, approximately 96 hours
[6] = read-out: HcL3 MED, approximately 96 hours incubation, multiple-resistant field isolate
[7] = read-out: HcL3 MED (symbol after Ex#), approximately 96 hours incubation, multiple-resistant field isolate

| SMILES | minimal effective concentration [1] | minimal effective concentration [2] | DiMf/DiL4 [2] | minimal effective concentration [3, 4] | minimal effective concentration [3, 5] | minimal effective concentration [3, 6] | minimal effective concentration [3, 7] |
| --- | --- | --- | --- | --- | --- | --- | --- |
| CC(C)C[C@H]1C(=O)O[C@H](Cc2ccc(Cc3cncnc3C(F)F)cc2)C(=O)N(C)[C@@H](CC(C)C)C(=O)O[C@H](C)C(=O)N(C)[C@@H](CC(C)C)C(=O)O[C@H](Cc2ccc(Cc3cncnc3C(F)F)cc2)C(=O)N(C)[C@@H](CC(C)C)C(=O)O[C@H](C)C(=O)N1C [Example 3-321, (3S,6R,9S,12R,15S,18R,21S,24R)-6,18-bis(4-((4-(difluoromethyl)pyrimidin-5-yl)methyl)benzyl)-3,9,15,21-tetraisobutyl-4,10,12,16,22,24-hexamethyl-1,7,13,19-tetraoxa-4,10,16,22-tetraazacyclotetracosan-2,5,8,11,14,17,20,23-octaone] | 5e-05 µM | 2e-05 µM | 2.5 | < 1 µM | 0.3 µM | ≤ 1 µM |  |
| Cc1cc(F)ncc1Cc1ccc(C[C@H]2OC(=O)[C@H](CC(C)C)N(C)C(=O)[C@@H](C)OC(=O)[C@H](CC(C)C)N(C)C(=O)[C@@H](Cc3ccc(Cc4cnc(F)cc4C)cc3)OC(=O)[C@H](CC(C)C)N(C)C(=O)[C@@H](C)OC(=O)[C@H](CC(C)C)N(C)C2=O)cc1 [Example 3-322, (3S,6R,9S,12R,15S,18R,21S,24R)-6,18-bis(4-((6-fluoro-4-methylpyridin-3-yl)methyl)benzyl)-3,9,15,21-tetraisobutyl-4,10,12,16,22,24-hexamethyl-1,7,13,19-tetraoxa-4,10,16,22-tetraazacyclotetracosan-2,5,8,11,14,17,20,23-octaone] | 0.01 µM | 0.0003 µM | 33.3 |  | 10 µM |  |  |
| CC(C)C[C@H]1C(=O)O[C@H](Cc2ccc(Cc3cccnc3F)cc2)C(=O)N(C)[C@@H](CC(C)C)C(=O)O[C@H](C)C(=O)N(C)[C@@H](CC(C)C)C(=O)O[C@H](Cc2ccc(Cc3cccnc3F)cc2)C(=O)N(C)[C@@H](CC(C)C)C(=O)O[C@H](C)C(=O)N1C [Example 3-323, (3S,6R,9S,12R,15S,18R,21S,24R)-6,18-bis(4-((2-fluoropyridin-3-yl)methyl)benzyl)-3,9,15,21-tetraisobutyl-4,10,12,16,22,24-hexamethyl-1,7,13,19-tetraoxa-4,10,16,22-tetraazacyclotetracosan-2,5,8,11,14,17,20,23-octaone] | 0.001 µM | 0.0001 µM | 10 | < 1 µM | 0.3 µM | ≤ 1 µM |  |
| CC(C)C[C@H]1C(=O)O[C@H](Cc2ccc(Cc3ccnc(F)c3F)cc2)C(=O)N(C)[C@@H](CC(C)C)C(=O)O[C@H](C)C(=O)N(C)[C@@H](CC(C)C)C(=O)O[C@H](Cc2ccc(Cc3ccnc(F)c3F)cc2)C(=O)N(C)[C@@H](CC(C)C)C(=O)O[C@H](C)C(=O)N1C [Example 3-326, (3S,6R,9S,12R,15S,18R,21S,24R)-6,18-bis(4-((2,3-difluoropyridin-4-yl)methyl)benzyl)-3,9,15,21-tetraisobutyl-4,10,12,16,22,24-hexamethyl-1,7,13,19-tetraoxa-4,10,16,22-tetraazacyclotetracosan-2,5,8,11,14,17,20,23-octaone] | 0.03 µM | 0.0003 µM | 100 |  | 10 µM |  |  |
| CC(C)C[C@H]1C(=O)O[C@H](Cc2ccc(Cc3cccnc3Br)cc2)C(=O)N(C)[C@@H](CC(C)C)C(=O)O[C@H](C)C(=O)N(C)[C@@H](CC(C)C)C(=O)O[C@H](Cc2ccc(Cc3cccnc3Br)cc2)C(=O)N(C)[C@@H](CC(C)C)C(=O)O[C@H](C)C(=O)N1C [Example 3-329, (3S,6R,9S,12R,15S,18R,21S,24R)-6,18-bis(4-((2-bromopyridin-3-yl)methyl)benzyl)-3,9,15,21-tetraisobutyl-4,10,12,16,22,24-hexamethyl-1,7,13,19-tetraoxa-4,10,16,22-tetraazacyclotetracosan-2,5,8,11,14,17,20,23-octaone] | 0.001 µM | 0.0001 µM | 10 | < 1 µM |  | ≤ 1 µM |  |
| CC(C)C[C@H]1C(=O)O[C@H](Cc2ccc(Cc3cnccc3C(F)(F)F)cc2)C(=O)N(C)[C@@H](CC(C)C)C(=O)O[C@H](C)C(=O)N(C)[C@@H](CC(C)C)C(=O)O[C@H](Cc2ccc(Cc3cnccc3C(F)(F)F)cc2)C(=O)N(C)[C@@H](CC(C)C)C(=O)O[C@H](C)C(=O)N1C [Example 3-333, (3S,6R,9S,12R,15S,18R,21S,24R)-3,9,15,21-tetraisobutyl-4,6,10,16,18,22-hexamethyl-12,24-bis(4-((4-(trifluoromethyl)pyridin-3-yl)methyl)benzyl)-1,7,13,19-tetraoxa-4,10,16,22-tetraazacyclotetracosan-2,5,8,11,14,17,20,23-octaone] | 0.003 µM | 0.0002 µM | 17 | < 1 µM |  | ≤ 1 µM |  |
| COc1nccc(Cc2ccc(C[C@H]3OC(=O)[C@H](CC(C)C)N(C)C(=O)[C@@H](C)OC(=O)[C@H](CC(C)C)N(C)C(=O)[C@@H](Cc4ccc(Cc5ccnc(OC)c5OC)cc4)OC(=O)[C@H](CC(C)C)N(C)C(=O)[C@@H](C)OC(=O)[C@H](CC(C)C)N(C)C3=O)cc2)c1OC [Example 3-334, (3S,6R,9S,12R,15S,18R,21S,24R)-6,18-bis(4-((2,3-dimethoxypyridin-4-yl)methyl)benzyl)-3,9,15,21-tetraisobutyl-4,10,12,16,22,24-hexamethyl-1,7,13,19-tetraoxa-4,10,16,22-tetraazacyclotetracosan-2,5,8,11,14,17,20,23-octaone] | 0.003 µM | 0.0003 µM | 10 | < 1 µM | 0.1 µM | ≤ 1 µM |  |
| CC(C)C[C@H]1C(=O)O[C@H](Cc2ccc(Cc3ccc4cn[nH]c4c3)cc2)C(=O)N(C)[C@@H](CC(C)C)C(=O)O[C@H](C)C(=O)N(C)[C@@H](CC(C)C)C(=O)O[C@H](Cc2ccccc2)C(=O)N(C)[C@@H](CC(C)C)C(=O)O[C@H](C)C(=O)N1C [Example 4-18, (3S,6R,9S,12R,15S,18R,21S,24R)-6-(4-((1H-indazol-6-yl)methyl)benzyl)-18-benzyl-3,9,15,21-tetraisobutyl-4,10,12,16,22,24-hexamethyl-1,7,13,19-tetraoxa-4,10,16,22-tetraazacyclotetracosan-2,5,8,11,14,17,20,23-octaone] | 0.05 µM | 0.001 µM | 50 |  | > 10 µM |  |  |
| Cc1c[nH]c(C)c1Cc1ccc(C[C@H]2OC(=O)[C@H](CC(C)C)N(C)C(=O)[C@@H](C)OC(=O)[C@H](CC(C)C)N(C)C(=O)[C@@H](Cc3ccccc3)OC(=O)[C@H](CC(C)C)N(C)C(=O)[C@@H](C)OC(=O)[C@H](CC(C)C)N(C)C2=O)cc1 [Example 4-19, (3S,6R,9S,12R,15S,18R,21S,24R)-6-benzyl-18-(4-((2,4-dimethyl-1H-pyrrol-3-yl)methyl)benzyl)-3,9,15,21-tetraisobutyl-4,10,12,16,22,24-hexamethyl-1,7,13,19-tetraoxa-4,10,16,22-tetraazacyclotetracosan-2,5,8,11,14,17,20,23-octaone] | 0.1 µM | 0.001 µM | 100 |  | > 10 µM |  |  |
| CC(C)C[C@H]1C(=O)O[C@H](Cc2ccc(C(O)c3coc4ccccc34)cc2)C(=O)N(C)[C@@H](CC(C)C)C(=O)O[C@H](C)C(=O)N(C)[C@@H](CC(C)C)C(=O)O[C@H](Cc2ccccc2)C(=O)N(C)[C@@H](CC(C)C)C(=O)O[C@H](C)C(=O)N1C (stereo partly drawn) [Example 4-21, (3S,6R,9S,12R,15S,18R,21S,24R)-6-(4-(benzofuran-3-yl(hydroxy)methyl)benzyl)-18-benzyl-3,9,15,21-tetraisobutyl-4,10,12,16,22,24-hexamethyl-1,7,13,19-tetraoxa-4,10,16,22-tetraazacyclotetracosan-2,5,8,11,14,17,20,23-octaone] | 0.05 µM | 0.001 µM | 50 |  | > 10 µM |  |  |
| CC(C)C[C@H]1C(=O)O[C@H](Cc2ccc(Cc3ncco3)cc2)C(=O)N(C)[C@@H](CC(C)C)C(=O)O[C@H](C)C(=O)N(C)[C@@H](CC(C)C)C(=O)O[C@H](Cc2ccccc2)C(=O)N(C)[C@@H](CC(C)C)C(=O)O[C@H](C)C(=O)N1C [Example 4-30, (3S,6R,9S,12R,15S,18R,21S,24R)-6-benzyl-3,9,15,21-tetraisobutyl-4,10,12,16,22,24-hexamethyl-18-(4-(oxazol-2-ylmethyl)benzyl)-1,7,13,19-tetraoxa-4,10,16,22-tetraazacyclotetracosan-2,5,8,11,14,17,20,23-octaone] | 0.001 µM | 0.001 µM | 1 |  | 1 µM | ≤ 1 µM | < 1 µM |
| CC(C)C[C@H]1C(=O)O[C@H](Cc2ccc(Cc3ccco3)cc2)C(=O)N(C)[C@@H](CC(C)C)C(=O)O[C@H](C)C(=O)N(C)[C@@H](CC(C)C)C(=O)O[C@H](Cc2ccccc2)C(=O)N(C)[C@@H](CC(C)C)C(=O)O[C@H](C)C(=O)N1C [Example 4-32, (3S,6R,9S,12R,15S,18R,21S,24R)-6-benzyl-18-(4-(furan-2-ylmethyl)benzyl)-3,9,15,21-tetraisobutyl-4,10,12,16,22,24-hexamethyl-1,7,13,19-tetraoxa-4,10,16,22-tetraazacyclotetracosan-2,5,8,11,14,17,20,23-octaone] | 0.003 µM | 0.001 µM | 3 |  | 1 µM | ≤ 1 µM | < 1 µM |
